# Assay results reported in ChEMBL document CHEMBL1143089, “Structure-based design and subsequent optimization of 2-tolyl-(1,2,3-triazol-1-yl-4-carboxamide) inhibitors of p38 MAP kinase” (Bioorg Med Chem Lett, 2008).
# Activity calls are given as the source filed them. The rule behind the calls is not given here.
# Columns and labels:
# [1] = Solubility at pH 7.4; format: physicochemical; details: buffer
# [2] = species: Homo sapiens; assay: Protein binding in human plasma; details: read-out: PPB (converted)
# [3] = test system: THP-1; assay: Inhibition of LPS-stimulated TNFalpha production in human THP1 cells; format: functional, cell-based
# [4] = test system: Blood; assay: Inhibition of LPS-stimulated TNFalpha production in human whole blood; format: functional, tissue-based
# [5] = Binding affinity to mitogen-activated protein kinase p38 by thermal denaturation assay
# [6] = molecular target: Serine/threonine-protein kinase Nek6 (Homo sapiens) (UniProt Q9HC98); assay: Activity at NEK6 at 3 uM
# [7] = molecular target: Insulin-like growth factor 1 receptor (Homo sapiens) (UniProt P08069); assay: Activity at IGF1R at 10 uM
# [8] = molecular target: Tyrosine-protein kinase SYK (Homo sapiens) (UniProt P43405); assay: Activity at Syk at 10 uM
# [9] = molecular target: MAP kinase-activated protein kinase 5 (Homo sapiens) (UniProt Q8IW41); assay: Activity at PRAK at 3 uM
# [10] = molecular target: MAP kinase-activated protein kinase 2 (Homo sapiens) (UniProt P49137); assay: Activity at MAPKAP-K2 at 3 uM
# [11] = molecular target: Tyrosine-protein kinase ITK/TSK (Homo sapiens) (UniProt Q08881); assay: Activity at Itk at 10 uM
# [12] = molecular target: Tyrosine-protein kinase TXK (Homo sapiens) (UniProt P42681); assay: Activity at TXK at 10 uM
# [13] = molecular target: Epidermal growth factor receptor (Homo sapiens) (UniProt P00533); assay: Activity at EGFR at 10 uM
# [14] = molecular target: Ephrin type-A receptor 3 (Homo sapiens) (UniProt P29320); assay: Activity at Hek at 10 uM; details: HEK293
# [15] = Activity at AMPK at 3 uM
# [16] = molecular target: Tyrosine-protein kinase JAK3 (Homo sapiens) (UniProt P52333); assay: Activity at JAK3 at 10 uM
# [17] = molecular target: Cyclin-dependent kinase 2/cyclin A (Homo sapiens) (UniProt P24941+P20248+P78396); assay: Activity at CDK2/cyclin A at 3 uM; format: protein-complex assay
# [18] = molecular target: Ribosomal protein S6 kinase alpha-5 (Homo sapiens) (UniProt O75582); assay: Activity at MSK1 at 3 uM
# [19] = molecular target: Tyrosine-protein kinase Lyn (Homo sapiens) (UniProt P07948); assay: Activity at Lyn at 10 uM
# [20] = molecular target: Mitogen-activated protein kinase 1 (Homo sapiens) (UniProt P28482); assay: Activity at ERK2 at 3 uM
# [21] = molecular target: Serine/threonine-protein kinase Chk1 (Homo sapiens) (UniProt O14757); assay: Activity at CHK1 at 3 uM
# [22] = molecular target: Tyrosine-protein kinase BTK (Homo sapiens) (UniProt Q06187); assay: Activity at Btk at 10 uM
# [23] = molecular target: Glycogen synthase kinase-3 beta (Homo sapiens) (UniProt P49841); assay: Activity at GSK3-beta at 3 uM
# [24] = molecular target: 3-phosphoinositide-dependent protein kinase 1 (Homo sapiens) (UniProt O15530); assay: Activity at PDK1 at 3 uM
# [25] = Activity at PKA at 3 uM
# [26] = Activity at MKK1 at 3 uM
# [27] = molecular target: Fibroblast growth factor receptor 3 (Homo sapiens) (UniProt P22607); assay: Activity at FGFR3 at 10 uM
# [28] = molecular target: Mitogen-activated protein kinase 8 (Homo sapiens) (UniProt P45983); assay: Activity at JNK1 at 3 uM
# [29] = molecular target: Casein kinase I isoform alpha (Homo sapiens) (UniProt P48729); assay: Activity at CK1 at 3 uM
# [30] = molecular target: Ribosomal protein S6 kinase alpha-1 (Homo sapiens) (UniProt Q15418); assay: Activity at MAPKAP-K1a at 3 uM
# [31] = Activity at PKBdeltaPH at 3 uM
# [32] = molecular target: Mitogen-activated protein kinase 13 (Homo sapiens) (UniProt O15264); assay: Activity at MAPK p38delta at 3 uM
# [33] = Activity at PP2A at 3 uM
# [34] = molecular target: Ephrin type-A receptor 2 (Homo sapiens) (UniProt P29317); assay: Activity at Eck at 10 uM
# [35] = molecular target: Protein kinase C alpha type (Homo sapiens) (UniProt P17252); assay: Activity at PKCalpha at 3 uM
# [36] = molecular target: Rho-associated protein kinase 2 (Homo sapiens) (UniProt O75116); assay: Activity at ROCK2 at 3 uM
# [37] = molecular target: Ribosomal protein S6 kinase beta-1 (Homo sapiens) (UniProt P23443); assay: Activity at S6K1 at 3 uM
# [38] = Apparent permeability across human Caco-2 cells; format: ADME, cell-based
# [39] = molecular target: Dual specificity tyrosine-phosphorylation-regulated kinase 1A (Homo sapiens) (UniProt Q13627); assay: Activity at DYRK1A at 3 uM
# [40] = molecular target: Vascular endothelial growth factor receptor 1 (Homo sapiens) (UniProt P17948); assay: Activity at VEGFR1 at 10 uM
# [41] = molecular target: Hepatocyte growth factor receptor (Homo sapiens) (UniProt P08581); assay: Activity at HGFR at 10 uM
# [42] = molecular target: Mitogen-activated protein kinase 14 (Homo sapiens) (UniProt Q16539); assay: Activity at MAPK p38-alpha at 3 uM
# [43] = molecular target: Insulin receptor (Homo sapiens) (UniProt P06213); assay: Activity at IR at 10 uM
# [44] = Inhibition of JNK2a
# [45] = molecular target: Serine/threonine-protein kinase Sgk1 (Homo sapiens) (UniProt O00141); assay: Activity at SGK at 3 uM
# [46] = molecular target: Casein kinase II subunit alpha (Homo sapiens) (UniProt P68400); assay: Activity at CK2 at 3 uM
# [47] = Binding affinity to mitogen-activated protein kinase p38
# Mitogen-activated protein kinase 8 (Homo sapiens), sequence (P45983 whole entry, canonical isoform): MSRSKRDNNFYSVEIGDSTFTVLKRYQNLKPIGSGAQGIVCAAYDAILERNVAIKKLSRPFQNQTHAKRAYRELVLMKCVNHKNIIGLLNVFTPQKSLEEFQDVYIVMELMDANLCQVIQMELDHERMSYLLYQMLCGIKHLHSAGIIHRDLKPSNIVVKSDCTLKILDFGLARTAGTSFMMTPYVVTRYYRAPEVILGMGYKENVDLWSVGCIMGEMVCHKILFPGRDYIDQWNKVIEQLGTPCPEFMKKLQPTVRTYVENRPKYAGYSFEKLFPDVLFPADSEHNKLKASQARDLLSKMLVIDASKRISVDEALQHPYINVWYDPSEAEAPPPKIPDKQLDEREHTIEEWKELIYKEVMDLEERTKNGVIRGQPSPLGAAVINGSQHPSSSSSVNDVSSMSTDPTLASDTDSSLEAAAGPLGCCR
# Ribosomal protein S6 kinase alpha-5 (Homo sapiens), sequence (O75582 whole entry, looked up): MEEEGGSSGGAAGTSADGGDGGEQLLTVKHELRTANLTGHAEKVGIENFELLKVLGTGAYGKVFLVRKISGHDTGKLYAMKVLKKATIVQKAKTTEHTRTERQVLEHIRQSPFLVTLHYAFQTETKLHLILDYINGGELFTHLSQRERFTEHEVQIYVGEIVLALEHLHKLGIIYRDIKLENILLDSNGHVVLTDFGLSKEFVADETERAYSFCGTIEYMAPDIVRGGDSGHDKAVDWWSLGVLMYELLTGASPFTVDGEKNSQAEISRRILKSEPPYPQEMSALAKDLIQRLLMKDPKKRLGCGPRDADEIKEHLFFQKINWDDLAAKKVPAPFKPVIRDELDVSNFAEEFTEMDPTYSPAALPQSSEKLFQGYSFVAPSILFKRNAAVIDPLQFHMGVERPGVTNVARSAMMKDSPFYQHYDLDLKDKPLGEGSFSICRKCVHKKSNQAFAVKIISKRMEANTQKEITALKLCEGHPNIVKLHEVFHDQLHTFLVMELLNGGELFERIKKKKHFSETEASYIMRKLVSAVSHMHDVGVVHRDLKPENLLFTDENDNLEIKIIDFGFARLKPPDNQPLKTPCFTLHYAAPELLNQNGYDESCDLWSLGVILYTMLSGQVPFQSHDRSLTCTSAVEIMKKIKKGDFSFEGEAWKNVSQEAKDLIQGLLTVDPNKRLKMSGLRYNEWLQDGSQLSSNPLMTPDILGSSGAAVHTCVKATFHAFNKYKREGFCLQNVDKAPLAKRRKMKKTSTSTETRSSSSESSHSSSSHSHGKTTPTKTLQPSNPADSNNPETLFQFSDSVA
# Ephrin type-A receptor 2 (Homo sapiens), sequence (P29317 whole entry): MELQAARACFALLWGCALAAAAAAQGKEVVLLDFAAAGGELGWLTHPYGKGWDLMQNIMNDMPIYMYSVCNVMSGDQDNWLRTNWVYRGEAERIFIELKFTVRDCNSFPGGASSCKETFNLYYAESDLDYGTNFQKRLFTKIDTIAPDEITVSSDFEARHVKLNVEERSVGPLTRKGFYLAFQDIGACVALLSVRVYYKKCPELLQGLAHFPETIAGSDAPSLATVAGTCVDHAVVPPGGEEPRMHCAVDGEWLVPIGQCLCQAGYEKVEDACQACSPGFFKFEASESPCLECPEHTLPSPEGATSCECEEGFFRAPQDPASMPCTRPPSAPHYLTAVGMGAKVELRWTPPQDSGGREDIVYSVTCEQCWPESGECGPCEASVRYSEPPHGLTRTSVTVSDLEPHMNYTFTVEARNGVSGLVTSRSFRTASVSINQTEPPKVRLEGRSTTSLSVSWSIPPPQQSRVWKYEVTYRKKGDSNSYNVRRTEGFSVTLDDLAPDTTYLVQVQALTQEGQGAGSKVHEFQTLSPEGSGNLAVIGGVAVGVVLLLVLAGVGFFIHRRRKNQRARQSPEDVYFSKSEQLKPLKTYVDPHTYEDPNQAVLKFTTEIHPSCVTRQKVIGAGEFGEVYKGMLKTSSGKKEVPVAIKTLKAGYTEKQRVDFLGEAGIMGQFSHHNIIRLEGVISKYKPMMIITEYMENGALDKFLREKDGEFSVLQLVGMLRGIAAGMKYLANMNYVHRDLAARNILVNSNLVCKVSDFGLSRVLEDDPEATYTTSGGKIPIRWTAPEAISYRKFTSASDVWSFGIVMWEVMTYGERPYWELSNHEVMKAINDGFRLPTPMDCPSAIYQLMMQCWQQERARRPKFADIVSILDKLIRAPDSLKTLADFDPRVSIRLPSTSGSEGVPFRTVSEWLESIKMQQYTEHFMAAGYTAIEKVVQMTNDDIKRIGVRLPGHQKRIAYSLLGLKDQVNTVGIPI
# Tyrosine-protein kinase JAK3 (Homo sapiens), sequence (P52333 whole entry): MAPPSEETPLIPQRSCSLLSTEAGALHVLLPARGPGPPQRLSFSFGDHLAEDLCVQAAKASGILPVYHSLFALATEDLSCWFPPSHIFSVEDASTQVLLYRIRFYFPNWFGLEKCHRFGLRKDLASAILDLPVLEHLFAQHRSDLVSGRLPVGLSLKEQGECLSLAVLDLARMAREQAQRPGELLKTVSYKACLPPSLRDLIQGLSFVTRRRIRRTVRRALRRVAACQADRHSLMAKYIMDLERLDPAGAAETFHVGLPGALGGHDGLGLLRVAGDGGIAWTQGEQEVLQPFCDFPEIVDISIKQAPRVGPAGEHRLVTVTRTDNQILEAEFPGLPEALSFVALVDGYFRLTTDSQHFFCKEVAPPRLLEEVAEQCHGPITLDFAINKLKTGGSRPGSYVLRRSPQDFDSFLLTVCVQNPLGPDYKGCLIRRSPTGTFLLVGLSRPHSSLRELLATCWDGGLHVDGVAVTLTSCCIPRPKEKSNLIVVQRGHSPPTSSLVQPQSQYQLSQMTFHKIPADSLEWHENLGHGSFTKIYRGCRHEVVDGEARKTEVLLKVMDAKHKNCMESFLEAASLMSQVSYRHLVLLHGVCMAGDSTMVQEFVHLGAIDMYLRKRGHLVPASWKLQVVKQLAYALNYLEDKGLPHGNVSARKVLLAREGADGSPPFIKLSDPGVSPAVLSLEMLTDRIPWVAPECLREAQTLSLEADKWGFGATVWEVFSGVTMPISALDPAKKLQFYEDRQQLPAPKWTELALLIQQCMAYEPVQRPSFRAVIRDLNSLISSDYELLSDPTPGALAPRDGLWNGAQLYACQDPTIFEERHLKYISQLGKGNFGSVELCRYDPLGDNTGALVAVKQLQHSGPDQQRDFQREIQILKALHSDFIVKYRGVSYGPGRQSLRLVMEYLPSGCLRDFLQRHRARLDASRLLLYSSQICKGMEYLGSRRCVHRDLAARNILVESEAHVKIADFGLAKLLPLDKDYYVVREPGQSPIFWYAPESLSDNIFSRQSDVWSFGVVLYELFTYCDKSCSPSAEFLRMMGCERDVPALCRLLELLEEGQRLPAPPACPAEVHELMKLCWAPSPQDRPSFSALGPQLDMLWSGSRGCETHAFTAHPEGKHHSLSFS
# Vascular endothelial growth factor receptor 1 (Homo sapiens), sequence (P17948 whole entry): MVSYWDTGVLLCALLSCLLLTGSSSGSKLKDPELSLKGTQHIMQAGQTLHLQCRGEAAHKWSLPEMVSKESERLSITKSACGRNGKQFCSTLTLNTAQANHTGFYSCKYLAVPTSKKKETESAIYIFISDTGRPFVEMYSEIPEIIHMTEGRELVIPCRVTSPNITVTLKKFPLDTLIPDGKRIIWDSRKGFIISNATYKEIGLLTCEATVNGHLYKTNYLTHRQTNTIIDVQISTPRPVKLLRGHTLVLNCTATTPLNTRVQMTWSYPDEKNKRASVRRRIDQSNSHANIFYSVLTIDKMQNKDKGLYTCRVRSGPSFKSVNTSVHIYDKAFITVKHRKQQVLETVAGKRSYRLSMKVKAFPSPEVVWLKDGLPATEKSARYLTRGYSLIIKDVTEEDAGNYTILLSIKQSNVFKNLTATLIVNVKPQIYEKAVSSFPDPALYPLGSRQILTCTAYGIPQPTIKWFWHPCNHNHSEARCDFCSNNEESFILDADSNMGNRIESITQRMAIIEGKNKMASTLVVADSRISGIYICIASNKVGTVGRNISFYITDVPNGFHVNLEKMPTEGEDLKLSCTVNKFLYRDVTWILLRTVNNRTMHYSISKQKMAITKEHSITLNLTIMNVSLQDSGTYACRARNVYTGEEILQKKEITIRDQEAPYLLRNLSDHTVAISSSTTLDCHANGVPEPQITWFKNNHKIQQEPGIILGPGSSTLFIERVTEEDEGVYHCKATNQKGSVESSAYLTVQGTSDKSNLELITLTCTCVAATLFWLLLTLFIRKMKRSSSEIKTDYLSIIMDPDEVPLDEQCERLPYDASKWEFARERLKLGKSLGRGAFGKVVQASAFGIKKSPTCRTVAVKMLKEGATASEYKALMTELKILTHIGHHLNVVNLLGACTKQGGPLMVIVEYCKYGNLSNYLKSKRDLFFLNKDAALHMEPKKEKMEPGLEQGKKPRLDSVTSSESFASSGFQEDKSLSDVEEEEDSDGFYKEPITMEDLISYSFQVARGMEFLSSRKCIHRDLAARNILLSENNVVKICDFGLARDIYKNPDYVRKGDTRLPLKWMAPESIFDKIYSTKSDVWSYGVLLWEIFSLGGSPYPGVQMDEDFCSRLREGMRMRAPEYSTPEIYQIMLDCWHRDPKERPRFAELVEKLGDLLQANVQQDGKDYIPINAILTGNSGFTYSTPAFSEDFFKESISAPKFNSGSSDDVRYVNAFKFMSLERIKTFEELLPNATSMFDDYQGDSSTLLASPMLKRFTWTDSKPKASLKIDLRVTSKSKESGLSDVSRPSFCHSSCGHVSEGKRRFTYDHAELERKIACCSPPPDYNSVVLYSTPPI
# Casein kinase I isoform alpha (Homo sapiens), sequence (P48729 2-337 limits assumed): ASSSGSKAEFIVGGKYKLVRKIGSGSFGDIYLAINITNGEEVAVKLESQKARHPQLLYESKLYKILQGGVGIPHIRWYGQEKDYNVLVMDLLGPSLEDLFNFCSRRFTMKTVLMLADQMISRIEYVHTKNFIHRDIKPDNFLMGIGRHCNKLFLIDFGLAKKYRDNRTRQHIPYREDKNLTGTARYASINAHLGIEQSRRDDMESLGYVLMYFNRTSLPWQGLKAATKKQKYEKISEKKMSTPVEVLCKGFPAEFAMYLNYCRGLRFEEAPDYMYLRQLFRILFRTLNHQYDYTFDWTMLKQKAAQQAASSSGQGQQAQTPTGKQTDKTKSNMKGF
smiles,measurement,setting,value
COc1c(NC(=O)c2ccc(C)c(N3C=C(C(=O)NCC(C)(C)C)NN3)c2)cc(C(C)(C)C)cc1NS(C)(=O)=O,solubility,[1],0.1 µg/mL
same,fraction unbound,[2],0.08
same,IC50,[3],14 nM
same,IC50,[4],260 nM
same,Tm,[5],60.5 °C
COc1c(NC(=O)c2ccc(C)c(N3C=C(C(=O)NCC(C)(C)CN(C)C)NN3)c2)cc(C(C)(C)C)cc1NS(C)(=O)=O,Activity,[6],inactive
same,Activity,[7],inactive
same,Activity,[8],inactive
same,Activity,[9],inactive
same,Activity,[10],inactive
same,Activity,[11],inactive
same,Activity,[12],inactive
same,Activity,[13],inactive
same,Activity,[14],inactive
same,Activity,[15],inactive
same,Activity,[16],inactive
same,Activity,[17],inactive
same,Activity,[18],inactive
same,Activity,[19],inactive
same,Activity,[20],inactive
same,solubility,[1],13.9 µg/mL
same,Activity,[21],inactive
same,Activity,[22],inactive
same,Activity,[23],inactive
same,Activity,[24],inactive
same,Activity,[25],inactive
same,fraction unbound,[2],0.34
same,Activity,[26],inactive
same,Activity,[27],inactive
same,Activity,[28],inactive
same,Activity,[29],inactive
same,IC50,[3],22 nM
same,Activity,[30],inactive
same,Activity,[31],inactive
same,IC50,[4],83 nM
same,Activity,[32],inactive
same,Activity,[33],inactive
same,Activity,[34],inactive
same,Activity,[35],inactive
same,Activity,[36],inactive
same,Activity,[37],inactive
same,Papp,[38],13 ×10⁻⁶ cm/s
same,Tm,[5],57.3 °C
same,Activity,[39],inactive
same,Activity,[40],inactive
same,Activity,[41],inactive
same,Activity,[42],inactive
same,Activity,[43],inactive
same,IC50,[44],1100 nM
same,Activity,[45],inactive
same,Activity,[46],inactive
COc1c(NC(=O)c2ccc(C)c(N3C=C(C(=O)NCc4ccncc4)NN3)c2)cc(C(C)(C)C)cc1NS(C)(=O)=O,IC50,[3],74 nM
same,IC50,[4],720 nM
same,Tm,[5],58.8 °C
COc1c(NC(=O)c2ccc(C)c(N3C=C(C(=O)N[C@@H](C)C(C)(C)C)NN3)c2)cc(C(C)(C)C)cc1NS(C)(=O)=O,IC50,[3],35 nM
same,IC50,[4],2600 nM
same,Tm,[5],60 °C
COc1c(NC(=O)c2ccc(C)c(N3C=C(C(=O)NCC(C)(C)N(C)C)NN3)c2)cc(C(C)(C)C)cc1NS(C)(=O)=O,IC50,[3],140 nM
same,IC50,[4],790 nM
same,Tm,[5],56.1 °C
CCOC(=O)C1=CN(c2cc(C(=O)Nc3cc(C(C)(C)C)cc(NS(C)(=O)=O)c3OC)ccc2C)NN1,Kd,[47],8 nM
same,IC50,[3],> 5000 nM
same,IC50,[4],9000 nM
same,Tm,[5],56.2 °C
COc1c(NC(=O)c2ccc(C)c(N3C=C(C(=O)N[C@H](CN(C)C)c4ccccc4)NN3)c2)cc(C(C)(C)C)cc1NS(C)(=O)=O,IC50,[3],35 nM
same,IC50,[4],500 nM
same,Tm,[5],65.1 °C
COc1c(NC(=O)c2ccc(C)c(N3C=C(C(=O)N[C@@H](C)C4CCCCC4)NN3)c2)cc(C(C)(C)C)cc1NS(C)(=O)=O,IC50,[3],66 nM
same,IC50,[4],5600 nM
same,Tm,[5],56.9 °C
CNC(=O)C1=CN(c2cc(C(=O)Nc3cc(C(C)(C)C)cc(NS(C)(=O)=O)c3OC)ccc2C)NN1,IC50,[3],110 nM
same,IC50,[4],8400 nM
same,Tm,[5],57.3 °C
COc1c(NC(=O)c2ccc(C)c(N3C=C(C(=O)N[C@H](C)c4ccccc4)NN3)c2)cc(C(C)(C)C)cc1NS(C)(=O)=O,IC50,[3],13 nM
same,IC50,[4],470 nM
same,Tm,[5],64.6 °C
COc1c(NC(=O)c2ccc(C)c(N3C=C(C(=O)N[C@@H](C)c4ccccc4)NN3)c2)cc(C(C)(C)C)cc1NS(C)(=O)=O,IC50,[3],27 nM
same,IC50,[4],2600 nM
same,Tm,[5],60.1 °C
COc1c(NC(=O)c2ccc(C)c(N3C=C(C(=O)N[C@H](C)C(C)(C)C)NN3)c2)cc(C(C)(C)C)cc1NS(C)(=O)=O,IC50,[3],14 nM
same,IC50,[4],1000 nM
same,Tm,[5],61.6 °C
COc1c(NC(=O)c2ccc(C)c(N3C=C(C(=O)N[C@H](C)C4CCCCC4)NN3)c2)cc(C(C)(C)C)cc1NS(C)(=O)=O,IC50,[3],16 nM
same,IC50,[4],2800 nM
same,Tm,[5],60.8 °C
COc1c(NC(=O)c2ccc(C)c(N3C=C(C(=O)NCC4CCCN(C)C4)NN3)c2)cc(C(C)(C)C)cc1NS(C)(=O)=O (centres undefined),IC50,[3],28 nM
same,IC50,[4],300 nM
same,Tm,[5],57.4 °C
COc1c(NC(=O)c2ccc(C)c(N3C=C(C(=O)NC4CC4)NN3)c2)cc(C(C)(C)C)cc1NS(C)(=O)=O,IC50,[3],110 nM
same,IC50,[4],2800 nM
same,Tm,[5],56.6 °C
Cc1ccc(-n2nc(C(C)(C)C)cc2NC(=O)Nc2ccc(OCCN3CCOCC3)c3ccccc23)cc1 [DORAMAPIMOD],solubility,[1],1 µg/mL
same,Papp,[38],10 ×10⁻⁶ cm/s
same,Tm,[5],63.5 °C
same,IC50,[44],6 nM
COc1c(NC(=O)c2ccc(C)c(N3C=C(C(=O)NCc4cccnc4)NN3)c2)cc(C(C)(C)C)cc1NS(C)(=O)=O,IC50,[3],38 nM
same,IC50,[4],270 nM
same,Tm,[5],57.9 °C
COc1c(NC(=O)c2ccc(C)c(N3C=C(C(=O)NCC4CCN(C)CC4)NN3)c2)cc(C(C)(C)C)cc1NS(C)(=O)=O,IC50,[3],200 nM
same,IC50,[4],4500 nM
same,Tm,[5],57.5 °C
COc1c(NC(=O)c2ccc(C)c(N3C=C(C(=O)NCC4CCCCC4)NN3)c2)cc(C(C)(C)C)cc1NS(C)(=O)=O,IC50,[3],14 nM
same,IC50,[4],260 nM
same,Tm,[5],56.2 °C
COc1c(NC(=O)c2ccc(C)c(N3C=C(C(=O)NCc4ccccc4)NN3)c2)cc(C(C)(C)C)cc1NS(C)(=O)=O,IC50,[3],40 nM
same,IC50,[4],930 nM
same,Tm,[5],59.7 °C
COc1c(NC(=O)c2ccc(C)c(N3C=C(C(=O)NCC(C)(C)O)NN3)c2)cc(C(C)(C)C)cc1NS(C)(=O)=O,solubility,[1],2 µg/mL
same,fraction unbound,[2],0.34
same,IC50,[3],18 nM
same,IC50,[4],210 nM
same,Papp,[38],7.4 ×10⁻⁶ cm/s
same,Tm,[5],59.9 °C
COc1c(NC(=O)c2ccc(C)c(N3C=C(C(=O)NC(C)(C)C)NN3)c2)cc(C(C)(C)C)cc1NS(C)(=O)=O,IC50,[3],84 nM
same,IC50,[4],> 15000 nM
same,Tm,[5],56.8 °C
COc1c(NC(=O)c2ccc(C)c(N3C=C(C(=O)N(C)Cc4ccccc4)NN3)c2)cc(C(C)(C)C)cc1NS(C)(=O)=O,IC50,[3],29 nM
same,IC50,[4],> 15000 nM
same,Tm,[5],57.8 °C
